Numbers after ± are expanded uncertainties.
Test: xn = mol fraction of the nth substance listed
Details: for surface tension liquid-gas: Pendant drop shape; for mass density: 101 kPa, Liquid

CC(=O)OCC(C)C [2-methylpropyl ethanoate] + Cc1cc(C)cc(C)c1
Details	mass density [kg/m3]	surface tension liquid-gas [mN/m]
298.15 K, x1 = 0.051	861.07 ± 0.55	27.76 ± 0.31
298.15 K, x1 = 0.1006	861.07 ± 0.57	27.49 ± 0.31
298.15 K, x1 = 0.1506	861.09 ± 0.59	27.2 ± 0.31
298.15 K, x1 = 0.2004	861.14 ± 0.62	26.91 ± 0.31
298.15 K, x1 = 0.2498	861.2 ± 0.64	26.62 ± 0.31
298.15 K, x1 = 0.3003	861.29 ± 0.67	26.31 ± 0.32
298.15 K, x1 = 0.35	861.41 ± 0.69	26.04 ± 0.32
298.15 K, x1 = 0.4004	861.56 ± 0.72	25.77 ± 0.32
298.15 K, x1 = 0.4502	861.74 ± 0.75	25.49 ± 0.32
298.15 K, x1 = 0.5004	861.94 ± 0.79	25.23 ± 0.32
298.15 K, x1 = 0.5499	862.17 ± 0.82	24.99 ± 0.32
298.15 K, x1 = 0.5996	862.44 ± 0.86	24.75 ± 0.33
298.15 K, x1 = 0.6494	862.74 ± 0.9	24.52 ± 0.33
298.15 K, x1 = 0.6998	863.09 ± 0.94	24.31 ± 0.33
298.15 K, x1 = 0.7498	863.46 ± 0.98	24.1 ± 0.33
298.15 K, x1 = 0.8007	863.89 ± 1	23.91 ± 0.34
298.15 K, x1 = 0.8502	864.36 ± 1.1	23.7 ± 0.34
298.15 K, x1 = 0.8998	864.88 ± 1.1	23.55 ± 0.34
298.15 K, x1 = 0.9491	865.43 ± 1.2	23.37 ± 0.34
298.15 K, x1 = 1	866.06 ± 1.2	23.15 ± 0.35
308.15 K, x1 = 0.0513	852.75 ± 0.57	26.89 ± 0.3
308.15 K, x1 = 0.0999	852.66 ± 0.59	26.61 ± 0.3
308.15 K, x1 = 0.1503	852.57 ± 0.61	26.3 ± 0.3
308.15 K, x1 = 0.2007	852.51 ± 0.63	26 ± 0.31
308.15 K, x1 = 0.2505	852.48 ± 0.65	25.7 ± 0.31
308.15 K, x1 = 0.3013	852.45 ± 0.68	25.39 ± 0.31
308.15 K, x1 = 0.35	852.46 ± 0.71	25.1 ± 0.31
308.15 K, x1 = 0.4002	852.49 ± 0.74	24.82 ± 0.31
308.15 K, x1 = 0.4506	852.56 ± 0.77	24.55 ± 0.31
308.15 K, x1 = 0.5	852.64 ± 0.8	24.29 ± 0.31
308.15 K, x1 = 0.5505	852.78 ± 0.83	24.03 ± 0.31
308.15 K, x1 = 0.5997	852.91 ± 0.87	23.77 ± 0.32
308.15 K, x1 = 0.6503	853.09 ± 0.91	23.53 ± 0.32
308.15 K, x1 = 0.6995	853.32 ± 0.94	23.32 ± 0.32
308.15 K, x1 = 0.75	853.57 ± 0.98	23.09 ± 0.32
308.15 K, x1 = 0.8002	853.86 ± 1	22.89 ± 0.32
308.15 K, x1 = 0.8502	854.21 ± 1.1	22.7 ± 0.33
308.15 K, x1 = 0.8997	854.61 ± 1.1	22.52 ± 0.33
308.15 K, x1 = 0.9498	855.03 ± 1.2	22.35 ± 0.33
308.15 K, x1 = 1	855.51 ± 1.2	22.16 ± 0.33
313.15 K, x1 = 0.0494	848.6 ± 0.57	26.45 ± 0.3
313.15 K, x1 = 0.1	848.45 ± 0.59	26.14 ± 0.3
313.15 K, x1 = 0.1493	848.33 ± 0.61	25.81 ± 0.3
313.15 K, x1 = 0.2002	848.2 ± 0.64	25.52 ± 0.3
313.15 K, x1 = 0.2499	848.1 ± 0.66	25.2 ± 0.3
313.15 K, x1 = 0.299	848.03 ± 0.69	24.92 ± 0.3
313.15 K, x1 = 0.3492	847.98 ± 0.71	24.62 ± 0.3
313.15 K, x1 = 0.3988	847.95 ± 0.74	24.33 ± 0.3
313.15 K, x1 = 0.4492	847.96 ± 0.77	24.06 ± 0.31
313.15 K, x1 = 0.5003	847.98 ± 0.8	23.78 ± 0.31
313.15 K, x1 = 0.5518	848.05 ± 0.84	23.51 ± 0.31
313.15 K, x1 = 0.5992	848.13 ± 0.87	23.28 ± 0.31
313.15 K, x1 = 0.6503	848.26 ± 0.91	23.02 ± 0.31
313.15 K, x1 = 0.6995	848.41 ± 0.95	22.78 ± 0.31
313.15 K, x1 = 0.7512	848.61 ± 0.99	22.56 ± 0.32
313.15 K, x1 = 0.8005	848.85 ± 1	22.35 ± 0.32
313.15 K, x1 = 0.8499	849.13 ± 1.1	22.14 ± 0.32
313.15 K, x1 = 0.9002	849.43 ± 1.1	21.98 ± 0.32
313.15 K, x1 = 0.9504	849.8 ± 1.2	21.81 ± 0.32
313.15 K, x1 = 1	850.16 ± 1.2	21.64 ± 0.33
